Experimental data published in patent US20250034151A1, “WEE1 INHIBITOR, PREPARATION THEREFOR, AND USE THEREOF” (JIANGSU TASLY DIYI PHARMACEUTICAL CO., LTD., priority 2022, published 2025).
Like-named read-outs stand apart in the source and are kept apart here.

How the values were obtained:
[1] = Liver microsomes in vitro stability (mouse); type: in vitro ADME; details: read-out: T1/2/min
Protocol: 1. Preparation of Working Solution:
Microsomes were taken out from the −80° C. refrigerator, rapidly melted in a 37° C. water bath and placed on ice until ready to use. The test article was diluted with DMSO to prepare a 10 mM stock solution, and then diluted with acetonitrile to a 0.5 mM secondary stock solution. […] NADPH was diluted with Buffer C to a working solution of 6 mM for the starter solution. An acetonitrile solution containing an internal standard was prepared as the precipitant, and Verapamil-HCl was chosen as the internal standard at a concentration of 4 ng/ml.
2. Experimental Procedure:
A round-bottom well plate was taken, noted as the reaction plate, and the prepared working solution for each compound was dispensed into the well plate according to the number of replicates and time points (0 h samples were also added to the reaction plate), 30 μL/well; the plate was incubated at 37° C. for 10 min. A separate plate with pointed bottom wells, noted as a precipitation plate, was added with 135 μL precipitant per well; 0 h samples were transferred to the plate after 10 min incubation and 15 μL of starter solution was added; the plate was placed on ice before centrifugation.
The diluted starter solution was added in sufficient quantity to the dispensing plate to facilitate the multichannel pipette aspiration operation.
The reaction was carried out on a warm incubation shaker and 15 μL of starter solution/sample is added to the plate using a multichannel pipette. The reaction was mixed with a slight shake to initiate the reaction, which was accurately timed and recorded using a timer. In general, samples with shorter reaction times are initiated late and vice versa early, allowing sufficient time for multiple plate manipulation to terminate the reaction. For example, as for the four experiments of 5, 15, 30, and 60 min, the 60 min experiment was started first, and the 5 min experiment was started later, so as to leave sufficient time for the 5 min group.
After the reaction time had elapsed, all the solution in the plate was aspirated using the multichannel pipette and added to the precipitation plate to terminate the reaction at that point in time. After all reactions had been terminated, the plates were shaken for ten minutes on a plate shaker at 600 rpm to precipitate the protein. The plate was centrifuged at 4° C. for 15 minutes at maximum rpm. 80 μL of supernatant was taken, 320 μL of pure water was added and mixed for LC-MS analysis.

H1299 cells = assay: Anti-proliferative effect on H1299 cells by Cell Titer-Glo; type: cell-based; details: 3 days
Protocol: (§1) Test Example 2: Evaluation of Cell Proliferation Inhibitory Activity
1. Evaluation of the Anti-Proliferative Effect of Compounds on H1299 Cells by the Cell Titer-Glo Method
(§2) Compound solutions of different concentration gradients were prepared. […] The cell growth group without compound was used as a positive control (maximum signal control) and the medium was used as a negative control (minimum signal control), while ensuring that the final level of DMSO in each reaction well was 0.2%. After removing the medium from the 384-well plate, 25 ul of the configured compound at different concentrations was transferred into the well plate and the compound and cells were incubated in the cell incubator at 37° C. with 5% CO2 for 3 days.
(§3) The 384-well plates were removed from the cell incubator and allowed to equilibrate for 1h to room temperature. 25 ul of Cell Titer-Glo assay was added to each well, lysed on a shaker for 2 min and then read out (Luminescence) using a BMG PHERAStar after 10 min incubation. Calculate the inhibition rate from the luminescence signal: first calculate the average of the positive control (maximum signal control) and the negative control (minimum signal control).
(§4) was used to calculate the rate of inhibition of the cells by different concentrations of the compounds. The IC50 of the compound on cell activity inhibition was calculated by fitting a log(inhibitor) vs. response-Variable slope model to GraphPad Prism 6. The fitted equation was: Y=Bottom+(Top−Bottom)/(1+10^((Log IC50−X)*HillSlope)), where Y represents the rate of inhibition and X represents the concentration of the known compound after Log.
(§5) The results of the in vitro anti-cell proliferation assays of H1299 and MIA Paca-2 for the example compounds according to the method described above are shown in Table 2, wherein the IC50 of each compound was determined and classified according to the description as follows: […]

Wee1 protein = target: T1, Wee1 protein (Homo sapiens, UniProt P30291); assay: Binding of compound to Wee1 protein and Tracer 178 by TR-FRET (Wee1 kinase inhibitory activity); details: 15 nM WEE1, 50 nM Tracer 178, read-out: IC50 (inhibitory activity against Wee1 kinase)
T1 construct: purchased Thermo Fisher PR7373A
T1 sequence (P30291 whole entry): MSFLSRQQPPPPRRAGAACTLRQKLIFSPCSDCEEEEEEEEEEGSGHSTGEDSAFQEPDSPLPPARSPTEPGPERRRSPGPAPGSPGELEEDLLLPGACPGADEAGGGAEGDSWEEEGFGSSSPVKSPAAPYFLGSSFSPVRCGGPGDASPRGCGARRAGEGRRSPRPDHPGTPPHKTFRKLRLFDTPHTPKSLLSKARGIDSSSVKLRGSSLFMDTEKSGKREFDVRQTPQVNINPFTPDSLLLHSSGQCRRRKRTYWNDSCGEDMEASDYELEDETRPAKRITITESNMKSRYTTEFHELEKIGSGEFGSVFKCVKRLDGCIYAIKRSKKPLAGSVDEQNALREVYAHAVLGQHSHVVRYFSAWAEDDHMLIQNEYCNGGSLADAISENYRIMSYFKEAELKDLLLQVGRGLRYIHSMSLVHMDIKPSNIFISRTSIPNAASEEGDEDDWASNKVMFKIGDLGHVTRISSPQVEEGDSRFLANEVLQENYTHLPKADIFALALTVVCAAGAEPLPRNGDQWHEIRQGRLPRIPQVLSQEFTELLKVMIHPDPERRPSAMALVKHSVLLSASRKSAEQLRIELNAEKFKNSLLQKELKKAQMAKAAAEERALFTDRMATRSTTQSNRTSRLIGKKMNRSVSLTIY
Protocol: First, solutions of the compounds in different concentration gradients were prepared. The compounds were dissolved in DMSO and the compounds were diluted 4 folds with a total of 10 dose points and 2 parallel replicates for each concentration.
The IC50 for inhibition of enzyme activity by the compounds was then calculated using GraphPad Prism 6 and fitted with a log (inhibitor) vs. response-Variable slope mode. The fitting equation was: Y=Bottom+(Top−Bottom)/(1+10^((Log IC50−X)*HillSlope)), wherein Y represents the percentage of residual enzyme activity known and X represents the known concentration of compound after the logarithm.

MIA PaCa2 cells = assay: Anti-proliferative effect on MIA PaCa2 cells by Cell Titer-Glo; type: cell-based; details: Homo sapiens, MIA PaCa-2, 72 h, 3 days, read-out: MIA PaCa 2 (IC50, inhibition of proliferation in vitro)
Protocol: as §1
2. Evaluation of the Anti-Proliferative Effect of Compounds on MIA PaCa2 Cells by the Cell Titer-Glo Method
as §2
as §3, with “1 h” for “1h”
as §4, with “Y=Bottom+(Top-Bottom)/(1+10^((Log” for “Y=Bottom+(Top−Bottom)/(1+10^((Log”, “wherein” for “where”
as §5

[2] = Membrane permeability study (Caco-2); type: in vitro ADME; details: human; for efflux ratio at 90 min, 10 µM: Caco-2, pH 7.4; for Papp A→B at 90 min, 10 µM / Papp B→A at 90 min, 10 µM: pH 7.4, Caco-2, 10 μM; for Papp A→B at 90 min, 10 µM: apical to basolateral; for Papp B→A at 90 min, 10 µM: basolateral to apical
Protocol: Caco-2 cells were purchased from the […] (Rockville, MD). The cell culture medium was modified Eagle's medium (MEM) containing 10% inactivated fetal bovine serum and 1% non-essential amino acids.
The cells were incubated for 21-28 days after inoculation for transport experiments and the apparent permeability (Papp) of Lucifer Yellow was used to characterize and verify the compactness of the cell monolayer. […] A 10 μM working solution of the compound to be tested was added to the apical side and basolateral side of Caco-2 and incubated at 37° C. for 90 min. After the incubation, dilute the samples on the apical side and basolateral side, and the concentrations of compounds on the apical and basolateral sides were detected by LC-MS/MS, and the concentrations of the compounds were quantified by standard curve.

[3] = Homo sapiens, NCI-H1299, 72 h, read-out: H1299 (IC50, inhibition of proliferation in vitro)

Row | Structure (SMILES) | half-life at 1 µM [1] [min] | IC50 (H1299 cells; [3]) [nM] | IC50 (Wee1 protein) [nM] | IC50 (MIA PaCa2 cells) [nM] | efflux ratio at 90 min, 10 µM [2] | Papp A→B at 90 min, 10 µM [2] [×10⁻⁶ cm/s] | Papp B→A at 90 min, 10 µM [2] [×10⁻⁶ cm/s] | IC50 (H1299 cells; listed as Compound61, read-out: H1299 (IC50, inhibition of proliferation in vitro)) [nM]
1 | C=CCn1c(=O)c2cnc(Nc3ccc(N4CCC(N(C)C5CN6CCC5CC6)CC4)cc3)nc2n1-c1cccc(N=S(C)(C)=O)n1 (stereo not shown) [Compound 8] | > 120 | 5000 to 10000 | 5 to 10 |  |  |  |  | 
2 | C=CCn1c(=O)c2cnc(Nc3ccc(N4CCN(C5CN6CCC5CC6)CC4)cc3)nc2n1-c1cccc(N=S(C)(C)=O)n1 (stereo not shown) [Compound 11] | 110 | 100 to 1000 | 5 to 10 | 100 to 1000 |  |  |  | 
3 | C=CCn1c(=O)c2cnc(Nc3ccc4c(c3)CN(C3CCN(C)CC3)C4=O)nc2n1-c1cccc(N=S(C)(C)=O)n1 [Compound 15] | > 120 | > 10000 | 5 to 10 | 2000 to 5000 |  |  |  | 
4 | C=CCn1c(=O)c2cnc(Nc3ccc(N4CCC(N5CC6CC5CN6C)CC4)cc3)nc2n1-c1cccc(C(C)(C)O)n1 (stereo not shown) [Compound 18] | > 120 | 2000 to 5000 | 5 to 10 | 100 to 1000 |  |  |  | 
5 | C=CCn1c(=O)c2cnc(Nc3ccc(N(C)[C@@H]4CN5CCC4CC5)cc3)nc2n1-c1cccc(C(C)(C)O)n1 [Compound 19] | 48.1 | > 10000 | < 5 | > 10000 |  |  |  | 
6 | C=CCn1c(=O)c2cnc(Nc3ccc(N4CC5CC(CN(C)C5)C4)cc3)nc2n1-c1cccc(C(C)(C)O)n1 [Compound 23] | 38.7 | > 10000 | 10 to 100 | 2000 to 5000 |  |  |  | 
7 | C=CCn1c(=O)c2cnc(Nc3ccc4c(c3)C(=O)N(C3CCN(C)CC3)C4)nc2n1-c1cccc(N=S(C)(C)=O)n1 [Compound 24] | > 120 | 5000 to 10000 | 10 to 100 | 100 to 1000 |  |  |  | 
8 | C=CCn1c(=O)c2cnc(Nc3ccc(N4C5CCC4CN(C)C5)cc3)nc2n1-c1cccc(C(C)(C)O)n1 [Compound 25] | 14.1 | 1000 to 2000 | 5 to 10 | 1000 to 2000 |  |  |  | 
9 | C=CCn1c(=O)c2cnc(Nc3ccc(N4CC5CCC(C4)N5C)cc3)nc2n1-c1cccc(C(C)(C)O)n1 [Compound 28] | 15 | 100 to 1000 | 5 to 10 | 100 to 1000 |  |  |  | 
10 | C=CCn1c(=O)c2cnc(Nc3ccc(N4CC5CC(CN(CC(F)(F)F)C5)C4)cc3)nc2n1-c1cccc(C(C)(C)O)n1 [Compound 33] |  | 1000 to 2000 | 10 to 100 | 2000 to 5000 | 0.83 | 9.12 | 7.56 | 
11 | C=CCn1c(=O)c2cnc(Nc3ccc(N4CC5CC(CN(CCF)C5)C4)cc3)nc2n1-c1cccc(C(C)(C)O)n1 [Compound 37] | 21.7 | 2000 to 5000 | 10 to 100 | 100 to 1000 |  |  |  | 
12 | C=CCn1c(=O)c2cnc(Nc3ccc(N4C[C@H]5C[C@@H](C4)N5C)cc3)nc2n1-c1cccc(N=S(C)(C)=O)n1 [Compound 39] | > 120 | 100 to 1000 | < 5 | ≤ 100 |  |  |  | 
13 | C=CCn1c(=O)c2cnc(Nc3ccc(N4CC5CC(C4)N5C(C)C)cc3)nc2n1-c1cccc(C(C)(C)O)n1 [Compound 42] |  | 100 to 1000 | 10 to 100 | 100 to 1000 | 7.99 | 6.22 | 49.7 | 
14 | C=CCn1c(=O)c2cnc(Nc3ccc(N4CC5CC(C4)N5C)cc3)nc2n1-c1ccc2oc(=O)n(CC)c2c1 [Compound 54] | 77 | 2000 to 5000 | 5 to 10 | 2000 to 5000 |  |  |  | 
15 | C=CCn1c(=O)c2cnc(Nc3ccc(N4CC5CC(C4)N5C)cc3)nc2n1-c1ccc2c(c1)C(C)(O)CO2 (stereo not shown) [Compound 57] | 43.9 | > 10000 | 10 to 100 | > 10000 |  |  |  | 
16 | C=CCn1c(=O)c2cnc(Nc3ccc(N4CC5CC(C4)N5C)cc3)nc2n1-c1ccc2cnn(CC)c2n1 [Compound 61] | > 120 |  | < 5 |  |  |  |  | 2000 to 5000
17 | C=CCn1c(=O)c2cnc(Nc3ccc(C(=O)N(C)C4CN5CCC4CC5)cc3)nc2n1-c1cccc(C(C)(C)O)n1 (stereo not shown) [Compound 62] | 25.1 | 1000 to 2000 | 5 to 10 | 100 to 1000 |  |  |  | 
18 | C=CCn1c(=O)c2cnc(Nc3ccc(N4CC5CC(C4)N5CCO)cc3)nc2n1-c1cccc(C(C)(C)O)n1 [Compound 66] |  | 100 to 1000 | 5 to 10 | 100 to 1000 |  |  |  | 
19 | C=CCn1c(=O)c2cnc(Nc3ccc(N4CC5CC(C4)N5CCOC)cc3)nc2n1-c1cccc(C(C)(C)O)n1 [Compound 67] |  | 100 to 1000 | 5 to 10 | ≤ 100 |  |  |  | 
20 | C=CCn1c(=O)c2cnc(Nc3ccc(N4CC5CC(C4)N5C(C)=O)cc3)nc2n1-c1cccc(C(C)(C)O)n1 [Compound 68] |  | 1000 to 2000 | 10 to 100 | 100 to 1000 |  |  |  | 
21 | C=CCn1c(=O)c2cnc(Nc3ccc(N4CCN(C)CC4)cc3)nc2n1-c1ccc2c(n1)OC(C)(C)CO2 [Compound 74] |  | > 10000 | 10 to 100 | > 10000 |  |  |  | 
22 | C=CCn1c(=O)c2cnc(Nc3ccc(N4C[C@@H]5C[C@H]4CN5C)cc3)nc2n1-c1ccc2ccn(CC)c2n1 [Compound 76] |  | 100 to 1000 | 10 to 100 | 1000 to 2000 |  |  |  | 
23 | C=CCn1c(=O)c2cnc(Nc3ccc(C4CCN(C)CC4)cc3)nc2n1-c1ccc2ccn(CC)c2n1 [Compound 77] |  | 1000 to 2000 | 5 to 10 | 1000 to 2000 |  |  |  | 
24 | C=CCn1c(=O)c2cnc(Nc3ccc(N4CC5CC(C4)N5C)c(F)c3)nc2n1-c1cccc(C(C)(C)O)n1 [Compound 78] |  | > 10000 | 10 to 100 | 1000 to 2000 |  |  |  | 
